The subject of one assay is Aspergillus fumigatus. The assay is described as follows: Lowest concentration required to inhibit 90-100% of the visible growth of Aspergillus fumigatus. Type of assay: functional.
Assay [1] has as its system Candida albicans. The assay is described as follows: Lowest concentration required to inhibit 90-100% of the visible growth of Candida albicans. Type of assay: functional.
For assay [2], the system named is Cryptococcus neoformans. The assay is described as follows: Tested in vitro for lowest concentration required to inhibit 90-100% of the visible growth of Cryptococcus neoformans.
Assay [3] relates to Candida albicans. The assay is described as follows: Lowest concentration required to inhibit 90-100% of the visible growth of Candida albicans; Range is 0.312-1.25. Type of assay: functional.
Assay [4] relates to Candida albicans. The assay is described as follows: Lowest concentration required to inhibit 90-100% of the visible growth of Candida albicans; Range is 0.625-1.25. Type of assay: functional.
The test system of assay [5] is Candida albicans. The assay is described as follows: Lowest concentration required to inhibit 90-100% of the visible growth of Candida albicans; Range is […]. It is filed as functional.
Assay [6] relates to Cryptococcus neoformans. The assay is described as follows: Tested in vitro for lowest concentration required to inhibit 90-100% of the visible growth of Cryptococcus neoformans; Range is 0.02-0.078.

The text below walks through data of ChEMBL document CHEMBL1133314, “Syntheses and biological evaluation of novel pseudomycin side-chain analogues. Part 2” (2000).

In brackets after ≈: the same amount, converted by molar mass.

The term MIC denotes the smallest concentration in the dilution series that meets the test's criterion for growth inhibition. Read a low MIC as a more susceptible organism. Regarding `C/C=C1\NC(=O)[C@H]([C@H](C)O)NC(=O)[C@H](CCN)NC(=O)[C@H](CCCCN)NC(=O)[C@H](CC(=O)O)NC(=O)[C@@H](CCN)NC(=O)[C@@H](NC(=O)C[C@H](O)CCCCCCCCCCCCCCC)COC(=O)[C@H]([C@H](O)CCl)NC(=O)[C@H]([C@H](O)C(=O)O)NC1=O`, the MIC came out at 2.5 µg/mL (≈ 1.98 µM) in the assay on Aspergillus fumigatus, 0.625 µg/mL (≈ 0.495 µM) in the assay on Candida albicans [1] and 0.01 µg/mL (≈ 0.00791 µM) in the assay on Cryptococcus neoformans [2].

Consider `C/C=C1\NC(=O)[C@H]([C@H](C)O)NC(=O)[C@H](CCN)NC(=O)[C@H](CCCCN)NC(=O)[C@H](CC(=O)O)NC(=O)[C@@H](CCN)NC(=O)[C@@H](NC(=O)C[C@H](O)CCCCCCCCCCC)COC(=O)[C@H]([C@H](O)CCl)NC(=O)[C@H]([C@H](O)C(=O)O)NC1=O` [PSEUDOMYCIN B], for which the MIC against Aspergillus fumigatus is greater than 20 µg/mL; with Candida albicans [3], 1.25 µg/mL (≈ 1.03 µM).

As for `C/C=C1\NC(=O)[C@H]([C@@H](C)O)NC(=O)[C@H](CCN)NC(=O)[C@H](CCCCN)NC(=O)[C@H](CC(=O)O)NC(=O)[C@@H](CCN)NC(=O)[C@@H](NC(=O)CC(O)CCCCCCCCCCCCCCCCC)COC(=O)[C@H]([C@H](O)CCl)NC(=O)[C@H]([C@H](O)C(=O)O)NC1=O` (mixture of isomers), the figures for the MIC against Aspergillus fumigatus, against Candida albicans [1] and in the assay on Cryptococcus neoformans [2] were 2.5 µg/mL, 10 µg/mL and 0.625 µg/mL, respectively.

For `C/C=C1\NC(=O)[C@H]([C@@H](C)O)NC(=O)[C@H](CCN)NC(=O)[C@H](CCCCN)NC(=O)[C@H](CC(=O)O)NC(=O)[C@@H](CCN)NC(=O)[C@@H](NC(=O)CC(O)CCCCCCCCCCC)COC(=O)[C@H]([C@H](O)CCl)NC(=O)[C@H]([C@H](O)C(=O)O)NC1=O` (mixture of isomers), the MIC against Aspergillus fumigatus is greater than 20 µg/mL; in the assay on Candida albicans [4] it was 1.25 µg/mL.

For the molecule `C/C=C1\NC(=O)[C@H]([C@H](C)O)NC(=O)[C@H](CCN)NC(=O)[C@H](CCCCN)NC(=O)[C@H](CC(=O)O)NC(=O)[C@@H](CCN)NC(=O)[C@@H](NC(=O)C[C@H](O)CCCCCCCCCCCCCCCCC)COC(=O)[C@H]([C@H](O)CCl)NC(=O)[C@H]([C@H](O)C(=O)O)NC1=O`, the figures for the minimum inhibitory concentration (MIC) with Aspergillus fumigatus, in the assay with Candida albicans [1] and against Cryptococcus neoformans [2] were 5 µg/mL (≈ 3.87 µM), 5 µg/mL (≈ 3.87 µM) and 1.25 µg/mL (≈ 0.968 µM), respectively.

For the molecule `C/C=C1\NC(=O)[C@H]([C@H](C)O)NC(=O)[C@H](CCN)NC(=O)[C@H](CCCCN)NC(=O)[C@H](CC(=O)O)NC(=O)[C@@H](CCN)NC(=O)[C@@H](NC(=O)C[C@@H](O)CCCCCCCCCCCCCCC)COC(=O)[C@H]([C@H](O)CCl)NC(=O)[C@H]([C@H](O)C(=O)O)NC1=O`, the MIC in the assay with Aspergillus fumigatus worked out at 10 µg/mL (≈ 7.91 µM); against Candida albicans [1], 2.5 µg/mL (≈ 1.98 µM); with Cryptococcus neoformans [2], 0.312 µg/mL (≈ 0.247 µM).

Turning to `C/C=C1\NC(=O)[C@H]([C@H](C)O)NC(=O)[C@H](CCN)NC(=O)[C@H](CCCCN)NC(=O)[C@H](CC(=O)O)NC(=O)[C@@H](CCN)NC(=O)[C@@H](NC(=O)C[C@@H](O)CCCCCCCCCCCCCCCCC)COC(=O)[C@H]([C@H](O)CCl)NC(=O)[C@H]([C@H](O)C(=O)O)NC1=O`, the MIC against Aspergillus fumigatus is greater than 20 µg/mL; with Candida albicans [1] it was 5 µg/mL (≈ 3.87 µM); with Cryptococcus neoformans [2] it was 5 µg/mL (≈ 3.87 µM).

Turning to `C/C=C1\NC(=O)[C@H]([C@H](C)O)NC(=O)[C@H](CCN)NC(=O)[C@H](CCCCN)NC(=O)[C@H](CC(=O)O)NC(=O)[C@@H](CCN)NC(=O)[C@@H](NC(=O)C[C@@H](O)CCCCCCCCCCC)COC(=O)[C@H]([C@H](O)CCl)NC(=O)[C@H]([C@H](O)C(=O)O)NC1=O`, the MIC is 5 µg/mL (≈ 4.14 µM) against Candida albicans [5] and greater than 20 µg/mL in the assay with Aspergillus fumigatus.

Turning to `C/C=C1\NC(=O)[C@H]([C@@H](C)O)NC(=O)[C@H](CCN)NC(=O)[C@H](CCCCN)NC(=O)[C@H](CC(=O)O)NC(=O)[C@@H](CCN)NC(=O)[C@@H](NC(=O)CC(O)CCCCCCCCCCCCCCC)COC(=O)[C@H]([C@H](O)CCl)NC(=O)[C@H]([C@H](O)C(=O)O)NC1=O` (mixture of isomers), the MIC came out at 5 µg/mL in the assay on Aspergillus fumigatus, 1.25 µg/mL against Candida albicans [1] and 0.02 µg/mL in the assay on Cryptococcus neoformans [6].
